Experimental data as given in PMC6100259, “Insights into Structure-Activity Relationships of 3-Arylhydrazonoindolin-2-One Derivatives for Their Multitarget Activity on β-Amyloid Aggregation and Neurotoxicity” (Molecules : A Journal of Synthetic Chemistry and Natural …, 2018).
Values after ≈ are worked out from the molar mass of the structure shown. Like-named read-outs stand apart in the source and are kept apart here.

Assays:
Aβ40 peptide [1] = target: T1, Aβ40 peptide (Homo sapiens, UniProt P05067); experiment: Inhibition of Aβ40 aggregation, ThT fluorescence-based method; type: biochemical
T1 construct: we preferred using Aβ40 peptide
T1 sequence (P05067 672-711 limits assumed): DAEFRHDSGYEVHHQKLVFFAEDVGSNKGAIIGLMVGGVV
Protocol: In vitro inhibition of Aβ aggregation was assessed through a ThT fluorescence-based method, with the use of 2% 1,1,1,3,3,3-hexafluoroisopropanol (HFIP) as aggregation enhancer. In this medium-throughput assay, we preferred using Aβ40 peptide, being more manageable than Aβ42 and less prone to the formation of preaggregates. Samples of Aβ were co-incubated with test molecules in PBS at 100 µM concentration and the antiaggregating activities were measured after 2 h of incubation at 25 °C. For compounds showing >80% Aβ40 aggregation inhibition, IC50s were determined.
(§1) The spectrofluorimetric assays, measuring ThT fluorescence in the presence of Aβ, were done as previously described. Briefly, coincubation samples were prepared as described above (Section 2.2 and Section 2.3) in 96-well black, non-binding microplates (Greiner Bio-One GmbH, Frickenhausen, Germany). Fluorimetric reads were performed in a multiplate reader Infinite M1000 Pro (Tecan, Cernusco sul Naviglio, Italy). Each concentration point was run in triplicate. CD ellipticity measures were performed as detailed in ref. [20], following the increase of the negative band at 215 nm as indicative of β-sheet arrangement.

[2] = Lipophilicity by RP-HPLC (log k'w); type: physicochemical; details: RP-HPLC C18, MeOH/10 mM ammonium formate buffer pH 4.5, extrapolated to 100% aqueous mobile phase, 25 °C
Protocol: To place on a more quantitative basis the above SAR trends, the lipophilicity of a number of isatin arylhydrazone derivatives was measured by an RP-HPLC method. The polycratic capacity factors (log k’w) were determined (details in the Experimental Section). Lipophilicity descriptors (i.e., 1-octanol–water partition coefficients) were also calculated (CLOGPs) using two computational tools (Bio-Loom software, v. 1.7 and ACDLabs software, release 10.0). The ACDLabs software was used also for calculating descriptors of polarizability and size, namely molar refractivity (CMR) and molar volume (MV). The experimental lipophilicity parameters (log k’w), along with CMR and MV, are reported in Table 6 for 18 compounds achieving finite IC50s (<100 µM) in the Aβ aggregation assay.
The lipophilicity parameters were determined by an RP-HPLC technique. Methanol solutions of the investigated hydrazone compounds (0.5 mg/mL) were injected into an Agilent 1260 infinity HPLC system (Agilent Technologies Italia, Milan), equipped with a diode array detector (DAD), and a Phenomenex Kinetex C18 column (150 × 4.6 mm, 5 μ, Phenomenex Italy s.r.l., Castel Maggiore, BO, Italy), and eluted at different mobile phase compositions (0.05 increments of MeOH volume fraction in 10 mM ammonium formate buffer at pH 4.5, ranging ϕ between 0.85 and 0.30). All RP-HPLC measurements were carried out at 25 ± 1 °C, at a flow rate of 1.0 mL/min, and at 254 nm wavelength.
The logarithm of capacity factors (log k′ = log (tR − t0)/t0) of each compound at different mobile phase compositions have been calculated; tR represents the retention time of the solute and t0 is the column dead time, measured as the elution time of a KNO3 solution in MeOH. For each compound, the log k′ values increased linearly with decreasing MeOH volume fraction. Logarithms of capacity factors extrapolated to the 100% aqueous mobile phase (log k′w) were calculated from the linear regressions on at least five data points (r^2 > 0.975).

[3] = Aqueous solubility in Tris/HCl buffer; type: physicochemical; details: pH 7.4 at 25 °C
Text: Based on data in Table 1, Table 2, Table 3, Table 4 and Table 5, compound 28 was selected for further biological and biophysical studies, aimed at elucidating the mechanism of disruption of Aβ aggregation, and evaluating the activity in biochemical assays related to neurodegeneration, and cytoprotection in a cell model of Aβ toxicity. Starting from the evidence that a bulky substituent led to a net improvement of antiaggregating activity (Table 5), we chose the N^1-cyclopropyl derivative 28 as the best compromise between in vitro activity and aqueous solubility.

Aβ42 peptide = Aβ42 peptide (Homo sapiens, UniProt P05067); experiment: Kinetics of Aβ42 fibrillization (ThT fluorescence and CD); type: biochemical; details: 50 µM Aβ42 with 20 µM compound, PBS 2% ethanol, 37 °C, after one week
Chain of Aβ42 peptide (P05067 672-713 limits assumed): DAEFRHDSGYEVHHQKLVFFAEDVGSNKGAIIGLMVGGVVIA
Protocol: For ThT and circular dichroism (CD) time-course measures of Aβ aggregation (50 µM), alone or in the presence of 28 (20 µM), samples were prepared in PBS containing 2% v/v ethanol as the cosolvent, and incubated at 37 °C. Aβ42 peptide was preferred, being the principal responsible of amyloid burden in AD brain. Kinetics of amyloid aggregation of Aβ42 was followed by means of ThT fluorescence and CD absorption. In the latter case, we monitored the increase of the negative band at 215 nm, probing the random coil to β-sheet transition in folding peptide. Results depicted in Figure 4 show a fast fibrillization of self-aggregating peptide (dotted black line), with fibrils already detectable in large amount in the first 48 h of incubation.
as §1

SH-SY5Y cells [4] = experiment: Protection from Aβ42-induced cytotoxicity, MTT assay; type: cell-based, human; details: 5 µM Aβ42 co-incubated with equimolar 5 µM compound, within two days
Protocol: (§2) Protection from Aβ42-induced cytotoxicity was measured for compound 28 in a conventional cell-based assay, measuring cell viability by means of MTT reduction. Antioxidant activity of 28 was assessed in an H2O2-induced oxidation cell model. Reactive oxygen species (ROS) production was detected by means of a spectrofluorometric measure of the fluorescent probe 2′,7′-dichlorofluorescein (DCF), formed by oxidation of 2′,7′-dichlorodihydrofluorescein (DCFH). In both assays, human SH-SY5Y neuroblastoma cell line was used.
Cytoprotection from Aβ42-induced neurotoxicity and from ROS generation was assessed in SH-SY5Y cells as already described. At least three independent experiments with six replicates (n ≥ 18) were carried out, and the results were averaged. Briefly, for MTT assay, SH-SY5Y cells were cultured in DMEM-Dulbecco’s modified Eagle’s medium (Sigma-Aldrich), grown to 70% confluence and seeded for experiment in 96-well plates at a density of 10,000 cells/well. Cultured cells were added with a DMEM solution of Aβ42, alone or in mixture with 28 (5 μM final concentration of both) and incubated at 37 °C in 5% CO2. […] After removal of solution and addition of DMSO, the absorbance of product formazan produced from MTT was measured at 570 nm using a multilabel plate counter Victor3 V (Perkin Elmer, Milan, Italy), with DMSO medium as the blank solution.

SH-SY5Y cells [5] = experiment: Antioxidant activity, H2O2-induced ROS production, DCFH-DA assay; type: cell-based; details: Homo sapiens, 20 µM compound, 100 µM hydrogen peroxide, read-out: ROS scavenging, maximum effect relative to effect of 100 µM quercetin
Protocol: as §2
Intracellular ROS production was evaluated using an oxidation-sensitive fluorescent probe, 2′,7′-dichlorodihydrofluorescin diacetate (DCFH-DA; Sigma-Aldrich). Viable SHSY5Y cells were seeded in a black 96-well cell culture plate for 24 h, then the cells were incubated in DMEM supplemented with different concentration (0 to 20 μM) of 28 for 1 h. After washing, DCFH-DA (50 μM final concentration) was added directly to each well, and the plate was incubated at 37 °C in 5% CO2 for 0.5 h. […] The formation of fluorescent dichlorofluorescein (DCF) due to oxidation of DCFH in the presence of ROS was read directly in each well at an excitation wavelength of 485 nm and an emission wavelength of 530 nm using a multilabel plate reader Victor3 V (Perkin Elmer), with DMSO medium as the control.

Aβ40 peptide [6] = target: T1, Aβ40 peptide; parameters: method as in PMID 21144622; details: read-out: IC50 inhibition of Aβ40 aggregation; hit compound, previously reported; cited from earlier work
AChE = system: AChE; parameters: method as in PMID 28801274; details: read-out: IC50 AChE inhibition; cited from earlier work
[7] = parameters: method as in PMID 28801274; details: pH 7.4 and 37 °C; cited from earlier work
[8] = parameters: method as in PMID 28801274; details: Tris/HCl buffer, pH 7.4 at 25 °C; cited from earlier work

SMILES: COc1ccc2c(c1)/C(=N/Nc1ccc(C(C)C)cc1)C(=O)N2C1CC1 [Compound 28, (Z)-1-Cyclopropyl-3-(2-(4-isopropylphenyl)hydrazono)-5-methoxyindolin-2-one]
- IC50 (Aβ40 peptide [1]): 800 ± 130 nM
- log k'w [2]: 6.36
- solubility [3]: 21 µM (≈ 7.34 µg/mL)
- fibril content compared with that of control peptide (Aβ42 peptide): about 30%
- cell viability (MTT reduction) (SH-SY5Y cells [4]): fully viable
- Emax at 20 µM (SH-SY5Y cells [5]): ~50%

SMILES: COc1ccc2c(c1)/C(=N/Nc1ccc(C(C)C)cc1)C(=O)N2 [Compound 1, (3Z)-5-methoxy-1H-indole-2,3-dione 3-[(4-isopropylphenyl)hydrazone]]
- IC50 (Aβ40 peptide [1]; Aβ40 aggregation inhibition, read-out: pIC50, Aβ antiaggregating potency (converted)): 398 nM
- log k'w [2]: 5.44
- IC50 (Aβ40 peptide [6]): 430 ± 40 nM
- IC50 (AChE): 6250 nM
- half-life [7]: 24 h
- solubility [8]: 71 µM (≈ 22 µg/mL)
